Test results as given in patent US20080311589A1, “METHOD OF HIGH-THROUGHPUT SCREENING OF MOLECULES AND COMPOUNDS FOR THEIR EFFECTS ON BIOLOGICAL AND CHEMICAL PROCESSES” (priority 1999, published 2008).

System: Mv1Lu mink lung epithelial cells
Assay: 6144 well BrdU cytoblot
Format: cell-based
Conditions: approximately 6000 nanowells
Experimental: FIG. 4. BrdU incorporation is detected in 6144 well plates with a cytoblot. (a) The actual size of the wells of a 6144 well plate (nanowells; You et al. Chem. Biol. 4:969-975. 1997) is shown. (b) 25× magnification of the blot shown in (a). The indicated number of cells (Mv1Lu) were seeded in […] volumes in duplicate in 1% mink medium with or without 10 μM BrdU or 400 pM TGF-β, as indicated. The cells were cultured for 24 hours at 37° C. with 5% CO2 and then a 6144 well cytoblot was performed (see protocols). (c) Two separate nanowell plates (You et al. Chem. Biol. 4:969-975. 1997) were seeded with 20,000 Mv1Lu cells/mL in 1% mink medium with or without 500 pM TGF-13. After 26 hours at 37° C. with 5% CO2 BrdU was added to a final concentration of 10 μM. The cells were incubated for an additional 18 hours at 37° C. with 5% CO2 and then a 6144 well cytoblot was performed (see protocols).
The anti-BrdU cytoblot assay was then tested for its ability to detect the inhibition of BrdU uptake in a plate containing approximately 6000 arrayed “nanowells” (You et al. Chem Biol 4:969-975. 1997. Incorporated herein by reference). […] The following protocol provides experimental detail.
The reagents to be tested were prepared in 1536 well plates with one or more test compound per well. […]

“TGF-β: anti-mitogen transforming growth factor β, multifunctional polypeptide signaling factor” was tested, and the BrdU incorporation was “prevented BrdU incorporation”.
